These are literature values, as cited in article PMC9851200, “Multiparameter phenotypic screening for endogenous TFEB and TFE3 translocation identifies novel chemical series modulating lysosome function” (Autophagy, 2022).

Structures are written as SMILES.

Design in all cases: method as in original PKIS2 published data
The target in data set [1] is kinases (KINOMEscan panel) (Homo sapiens, UniProt Q7KZI7). The note with it: MARK2; Published KINOMEscan; ref original PKIS2 published data; cited from earlier work.
Data set [2] concerns the target kinases (KINOMEscan panel) (Homo sapiens, UniProt O00750). The following applies: PIK3C2B; Published KINOMEscan; ref original PKIS2 published data; cited from earlier work.
Data set [3] deals with kinases (KINOMEscan panel) (Homo sapiens, UniProt P0C1S8). The note with it: WEE2; Published KINOMEscan; ref original PKIS2 published data; cited from earlier work.
Data set [4] deals with kinases (KINOMEscan panel) (Homo sapiens, UniProt Q13705). The note with it: kinase ACVR2B; Published KINOMEscan; ref original PKIS2 published data; cited from earlier work.
kinases (KINOMEscan panel) (Homo sapiens, UniProt Q13705), sequence (Q13705 19-512): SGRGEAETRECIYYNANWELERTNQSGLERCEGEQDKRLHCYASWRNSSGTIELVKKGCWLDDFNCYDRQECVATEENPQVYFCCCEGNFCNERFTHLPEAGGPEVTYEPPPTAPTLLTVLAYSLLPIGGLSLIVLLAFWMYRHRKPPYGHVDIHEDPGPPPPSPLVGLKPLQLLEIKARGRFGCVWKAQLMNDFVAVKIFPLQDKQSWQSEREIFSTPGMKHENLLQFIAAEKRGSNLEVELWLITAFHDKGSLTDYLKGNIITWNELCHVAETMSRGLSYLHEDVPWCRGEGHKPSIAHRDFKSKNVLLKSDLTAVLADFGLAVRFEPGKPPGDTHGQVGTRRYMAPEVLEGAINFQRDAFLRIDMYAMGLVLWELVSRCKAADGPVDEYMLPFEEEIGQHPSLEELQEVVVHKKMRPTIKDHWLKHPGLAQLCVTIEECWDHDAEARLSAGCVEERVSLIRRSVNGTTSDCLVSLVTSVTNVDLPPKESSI
The target in data set [5] is kinases (KINOMEscan panel) (Homo sapiens, UniProt Q07002). The following applies: kinase CDK18; Published KINOMEscan; ref original PKIS2 published data; cited from earlier work.
kinases (KINOMEscan panel) (Homo sapiens, UniProt Q07002), sequence (Q07002 whole entry): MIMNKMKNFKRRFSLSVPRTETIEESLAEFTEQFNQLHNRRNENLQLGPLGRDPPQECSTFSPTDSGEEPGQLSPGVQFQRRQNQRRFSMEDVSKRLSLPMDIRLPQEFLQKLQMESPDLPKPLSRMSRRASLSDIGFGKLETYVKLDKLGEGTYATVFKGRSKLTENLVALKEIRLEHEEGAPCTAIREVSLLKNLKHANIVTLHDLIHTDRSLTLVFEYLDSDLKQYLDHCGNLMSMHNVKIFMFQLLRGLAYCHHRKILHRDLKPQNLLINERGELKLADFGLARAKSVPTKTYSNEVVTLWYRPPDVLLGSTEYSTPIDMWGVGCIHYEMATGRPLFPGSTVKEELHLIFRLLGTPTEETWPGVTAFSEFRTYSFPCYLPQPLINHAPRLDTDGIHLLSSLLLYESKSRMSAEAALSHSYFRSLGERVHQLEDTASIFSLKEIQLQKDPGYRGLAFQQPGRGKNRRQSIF
Data set [6] has as its target kinases (KINOMEscan panel) (Homo sapiens, UniProt P36894). The following applies: kinase BMPR1A; Published KINOMEscan; ref original PKIS2 published data; cited from earlier work.
Data set [7] addresses T1, kinases (KINOMEscan panel) (Homo sapiens, UniProt Q9Y2U5).
T1 sequence (Q9Y2U5 1-619): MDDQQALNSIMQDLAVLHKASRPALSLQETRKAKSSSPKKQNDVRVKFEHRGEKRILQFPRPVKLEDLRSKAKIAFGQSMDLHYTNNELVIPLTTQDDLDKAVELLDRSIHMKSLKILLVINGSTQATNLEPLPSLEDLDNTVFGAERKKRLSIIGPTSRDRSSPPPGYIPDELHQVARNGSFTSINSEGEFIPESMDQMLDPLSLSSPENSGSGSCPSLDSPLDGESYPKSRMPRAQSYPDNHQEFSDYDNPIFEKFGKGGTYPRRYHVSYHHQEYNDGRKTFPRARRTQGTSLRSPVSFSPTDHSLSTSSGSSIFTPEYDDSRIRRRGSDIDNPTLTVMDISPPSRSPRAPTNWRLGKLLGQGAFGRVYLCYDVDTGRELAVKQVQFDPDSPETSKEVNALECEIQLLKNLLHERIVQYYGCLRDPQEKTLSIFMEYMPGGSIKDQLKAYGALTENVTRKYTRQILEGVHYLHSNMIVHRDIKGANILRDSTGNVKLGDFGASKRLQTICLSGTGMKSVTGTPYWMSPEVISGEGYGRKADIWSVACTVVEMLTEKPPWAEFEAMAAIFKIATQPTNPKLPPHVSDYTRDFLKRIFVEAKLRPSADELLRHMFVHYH
The note with it: MAP3K2; Published KINOMEscan; ref original PKIS2 published data; cited from earlier work.

The target in data set [8] is kinases (KINOMEscan panel) (Homo sapiens, UniProt Q9Y3S1). The following applies: WNK2; Published KINOMEscan; ref original PKIS2 published data; cited from earlier work.
kinases (KINOMEscan panel) (Homo sapiens, UniProt Q9Y3S1), sequence (Q9Y3S1 whole entry): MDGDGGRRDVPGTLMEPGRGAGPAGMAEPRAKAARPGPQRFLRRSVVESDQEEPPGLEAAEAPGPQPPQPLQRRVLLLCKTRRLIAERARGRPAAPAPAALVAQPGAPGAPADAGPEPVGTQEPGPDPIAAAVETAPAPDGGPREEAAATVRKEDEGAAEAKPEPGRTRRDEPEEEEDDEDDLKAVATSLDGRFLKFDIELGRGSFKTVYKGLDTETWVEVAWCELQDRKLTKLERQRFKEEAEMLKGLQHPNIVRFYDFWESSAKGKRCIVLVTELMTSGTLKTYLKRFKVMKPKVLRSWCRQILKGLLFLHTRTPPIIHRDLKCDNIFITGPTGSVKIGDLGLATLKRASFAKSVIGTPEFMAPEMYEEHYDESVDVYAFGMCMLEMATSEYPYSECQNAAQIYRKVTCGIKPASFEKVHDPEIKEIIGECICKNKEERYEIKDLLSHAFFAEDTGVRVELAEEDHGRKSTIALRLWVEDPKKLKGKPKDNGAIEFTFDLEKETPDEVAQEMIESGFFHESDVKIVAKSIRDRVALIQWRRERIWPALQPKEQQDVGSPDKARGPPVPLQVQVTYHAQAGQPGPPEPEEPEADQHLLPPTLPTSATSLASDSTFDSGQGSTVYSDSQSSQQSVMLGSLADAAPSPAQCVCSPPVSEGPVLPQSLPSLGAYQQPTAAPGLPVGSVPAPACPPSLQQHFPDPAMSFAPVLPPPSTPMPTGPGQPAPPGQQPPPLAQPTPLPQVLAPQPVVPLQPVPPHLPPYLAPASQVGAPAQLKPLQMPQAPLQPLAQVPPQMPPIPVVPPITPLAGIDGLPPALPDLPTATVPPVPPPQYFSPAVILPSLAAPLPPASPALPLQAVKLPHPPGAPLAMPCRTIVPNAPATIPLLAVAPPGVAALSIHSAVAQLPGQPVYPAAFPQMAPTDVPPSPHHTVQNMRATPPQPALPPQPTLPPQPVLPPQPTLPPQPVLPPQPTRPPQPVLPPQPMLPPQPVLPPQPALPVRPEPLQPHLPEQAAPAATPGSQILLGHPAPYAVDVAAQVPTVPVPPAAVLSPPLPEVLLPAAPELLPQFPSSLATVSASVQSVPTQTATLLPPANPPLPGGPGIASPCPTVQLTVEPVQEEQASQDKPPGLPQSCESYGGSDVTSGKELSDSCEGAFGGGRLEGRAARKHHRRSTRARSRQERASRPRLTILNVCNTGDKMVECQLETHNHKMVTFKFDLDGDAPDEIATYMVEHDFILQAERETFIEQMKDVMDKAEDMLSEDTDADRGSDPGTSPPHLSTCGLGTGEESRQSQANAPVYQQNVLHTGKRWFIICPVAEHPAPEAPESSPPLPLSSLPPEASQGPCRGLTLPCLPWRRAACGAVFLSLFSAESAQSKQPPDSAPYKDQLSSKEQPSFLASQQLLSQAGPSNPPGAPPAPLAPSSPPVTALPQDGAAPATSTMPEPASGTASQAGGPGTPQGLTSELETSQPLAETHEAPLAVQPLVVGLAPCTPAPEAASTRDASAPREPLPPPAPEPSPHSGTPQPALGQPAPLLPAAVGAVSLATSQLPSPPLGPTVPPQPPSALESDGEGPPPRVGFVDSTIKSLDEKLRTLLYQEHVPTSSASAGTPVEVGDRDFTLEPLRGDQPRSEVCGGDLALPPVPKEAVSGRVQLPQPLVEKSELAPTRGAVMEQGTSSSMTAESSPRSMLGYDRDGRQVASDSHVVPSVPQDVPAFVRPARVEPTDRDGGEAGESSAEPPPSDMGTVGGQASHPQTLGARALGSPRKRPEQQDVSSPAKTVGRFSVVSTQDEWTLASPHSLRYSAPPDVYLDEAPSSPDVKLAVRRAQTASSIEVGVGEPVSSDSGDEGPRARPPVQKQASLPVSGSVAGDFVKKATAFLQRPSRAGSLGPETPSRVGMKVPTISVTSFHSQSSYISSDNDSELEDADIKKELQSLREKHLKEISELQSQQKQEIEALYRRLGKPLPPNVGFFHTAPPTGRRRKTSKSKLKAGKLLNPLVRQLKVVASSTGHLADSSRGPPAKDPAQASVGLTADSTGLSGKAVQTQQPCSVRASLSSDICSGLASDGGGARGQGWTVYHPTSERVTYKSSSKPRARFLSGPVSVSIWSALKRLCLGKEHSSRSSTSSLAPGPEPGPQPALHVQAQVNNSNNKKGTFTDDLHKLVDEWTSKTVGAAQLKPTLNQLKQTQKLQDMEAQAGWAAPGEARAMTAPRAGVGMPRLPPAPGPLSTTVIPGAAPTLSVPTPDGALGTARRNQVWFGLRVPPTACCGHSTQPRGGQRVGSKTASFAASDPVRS
In data set [9] the target is kinases (KINOMEscan panel) (Homo sapiens, UniProt P24723). The following applies: kinase PRKCH; Published KINOMEscan; ref original PKIS2 published data; cited from earlier work.
For data set [10], the target named is kinases (KINOMEscan panel) (Homo sapiens, UniProt Q9Y243). The following applies: kinase AKT3; Published KINOMEscan; ref original PKIS2 published data; cited from earlier work.
kinases (KINOMEscan panel) (Homo sapiens, UniProt Q9Y243), sequence (Q9Y243 whole entry): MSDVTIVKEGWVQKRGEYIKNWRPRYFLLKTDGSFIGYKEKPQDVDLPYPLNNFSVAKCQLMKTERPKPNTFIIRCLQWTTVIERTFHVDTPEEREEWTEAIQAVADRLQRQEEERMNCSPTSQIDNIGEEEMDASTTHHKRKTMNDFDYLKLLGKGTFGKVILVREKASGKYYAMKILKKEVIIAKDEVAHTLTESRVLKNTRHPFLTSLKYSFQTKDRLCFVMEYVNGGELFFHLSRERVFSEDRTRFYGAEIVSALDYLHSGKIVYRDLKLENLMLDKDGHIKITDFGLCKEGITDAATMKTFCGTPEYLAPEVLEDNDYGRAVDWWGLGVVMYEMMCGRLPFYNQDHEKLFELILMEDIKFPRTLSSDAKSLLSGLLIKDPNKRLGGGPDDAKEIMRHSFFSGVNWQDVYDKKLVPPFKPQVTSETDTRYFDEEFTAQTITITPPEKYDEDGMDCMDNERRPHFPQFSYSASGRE
For data set [11], the target named is T2, kinases (KINOMEscan panel) (Homo sapiens, UniProt P51813).
T2 sequence (P51813 1-675): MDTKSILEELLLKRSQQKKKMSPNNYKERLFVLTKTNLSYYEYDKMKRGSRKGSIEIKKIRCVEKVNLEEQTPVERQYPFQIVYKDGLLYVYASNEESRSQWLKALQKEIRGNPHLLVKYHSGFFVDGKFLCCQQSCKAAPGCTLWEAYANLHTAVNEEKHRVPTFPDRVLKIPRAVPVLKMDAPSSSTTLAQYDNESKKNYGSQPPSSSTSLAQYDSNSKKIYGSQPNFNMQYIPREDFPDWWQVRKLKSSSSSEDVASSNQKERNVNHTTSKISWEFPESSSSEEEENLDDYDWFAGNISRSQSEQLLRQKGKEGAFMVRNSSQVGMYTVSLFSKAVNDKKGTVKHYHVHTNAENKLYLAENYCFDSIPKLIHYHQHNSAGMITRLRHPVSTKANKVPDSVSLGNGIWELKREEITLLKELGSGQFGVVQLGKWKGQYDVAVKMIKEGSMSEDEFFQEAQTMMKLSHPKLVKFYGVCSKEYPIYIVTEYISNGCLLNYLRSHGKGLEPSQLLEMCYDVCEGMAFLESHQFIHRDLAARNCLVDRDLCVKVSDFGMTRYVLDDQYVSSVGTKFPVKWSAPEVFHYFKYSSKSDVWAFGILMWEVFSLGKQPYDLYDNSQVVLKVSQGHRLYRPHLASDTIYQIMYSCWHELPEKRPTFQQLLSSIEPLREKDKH
The note with it: BMX; Published KINOMEscan; ref original PKIS2 published data; cited from earlier work.

The target in data set [12] is kinases (KINOMEscan panel) (Homo sapiens, UniProt Q9P1W9). The note with it: PIM2; Published KINOMEscan; ref original PKIS2 published data; cited from earlier work.
kinases (KINOMEscan panel) (Homo sapiens, UniProt Q9P1W9), sequence (Q9P1W9 whole entry): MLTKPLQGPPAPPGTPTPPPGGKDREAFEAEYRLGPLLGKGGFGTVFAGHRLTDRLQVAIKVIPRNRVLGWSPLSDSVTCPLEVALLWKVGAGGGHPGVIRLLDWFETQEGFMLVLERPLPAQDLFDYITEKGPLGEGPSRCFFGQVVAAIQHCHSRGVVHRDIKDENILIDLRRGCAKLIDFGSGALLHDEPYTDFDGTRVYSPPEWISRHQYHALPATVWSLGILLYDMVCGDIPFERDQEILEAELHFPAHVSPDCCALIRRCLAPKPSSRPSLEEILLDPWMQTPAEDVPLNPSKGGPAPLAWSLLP

kinases (KINOMEscan panel) (Homo sapiens, UniProt P36894), sequence (P36894 24-532): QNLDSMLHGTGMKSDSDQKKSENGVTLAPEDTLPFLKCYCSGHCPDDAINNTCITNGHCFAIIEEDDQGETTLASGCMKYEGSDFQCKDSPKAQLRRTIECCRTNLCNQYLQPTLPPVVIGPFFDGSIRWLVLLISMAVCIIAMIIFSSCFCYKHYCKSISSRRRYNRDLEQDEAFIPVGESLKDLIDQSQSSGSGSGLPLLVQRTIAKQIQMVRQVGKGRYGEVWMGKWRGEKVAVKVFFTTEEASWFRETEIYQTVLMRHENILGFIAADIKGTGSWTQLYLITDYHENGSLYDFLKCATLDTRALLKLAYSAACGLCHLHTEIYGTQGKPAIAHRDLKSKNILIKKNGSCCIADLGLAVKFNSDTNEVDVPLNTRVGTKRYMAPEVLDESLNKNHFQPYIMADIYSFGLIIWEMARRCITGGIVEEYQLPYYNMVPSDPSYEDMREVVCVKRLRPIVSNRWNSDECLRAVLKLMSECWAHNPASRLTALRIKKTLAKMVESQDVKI

On to `Cc1cccc(-c2nc(Nc3ccncc3)c3ccccc3n2)n1` [NK215], for which the “KINOMEscan MARK2” value in data set [1] is reported as 0. Moreover, in [2], the “KINOMEscan PIK3C2B” value is listed as 0. Moreover, the “KINOMEscan WEE2” value in data set [3] is listed as 8. In addition, the “KINOMEscan ACVR2B” value in [4] was 36. In addition, the “KINOMEscan CDK18” value in data set [5] is recorded as 0. In addition, the “KINOMEscan BMPR1A” value in [6] was 0. Further, the “KINOMEscan MAP3K2” value in data set [7] was 0. Further, in [8], the “KINOMEscan WNK2” value was 0. Also, the “KINOMEscan PRKCH” value in data set [9] is on record as 0. Moreover, the “KINOMEscan AKT3” value in [10] is 0. In data set [11], the “KINOMEscan BMX” value is reported as 6. For the same molecule, the “KINOMEscan PIM2” value in [12] is given as 18.
